No end group written: not given here.
Experiments:
[1] = test system: defibrinated erythrocytes isolated from whole horse blood; format: cell-based; details: red cells of horse
Description: Following a previous study ([Huang et al., 2017]), we evaluated the hemolytic activity of three peptides using defibrinated erythrocytes isolated from whole horse blood (TCS Biosciences Ltd., Buckingham, United Kingdom). Phosphate-buffered saline (PBS) and 1% Triton X-100 were used as negative and positive controls, respectively, and 1% DMSO/PBS was used as the vehicle control. The HC50 and the therapeutic index (TI = HC50/the geometric mean of MICs against tested bacterial strains of peptide) were calculated to determine the therapeutic potential.

[2] = test system: S. aureus (NCTC 10788); format: cell-based, Staphylococcus aureus; details: NCTC 10788, 18 h
Method: (§1) Antimicrobial activity was evaluated by assessing minimal inhibitory concentrations (MICs) and minimal bactericidal concentrations (MBCs). The tested microorganisms comprised three Gram-positive bacterial strains, namely S. aureus (NCTC 10788) and MRSA strains (NCTC 12493 and ATCC 43300), E. coli (NCTC 10418), which is a Gram-negative bacterial strain, and C. albicans (NCYC 1467), a yeast species. Standard microbes were cultured in Muller-Hinton Broth (MHB) and suspended to obtain 5 × 10^5 CFU/ml. Subsequently, the equal volume microorganisms solutions were treated with a 2-fold dilution of peptides, the final concentration of the peptides ranged between 512 and 1 μM. The positive control of bacteria strains S. aureus, MRSA NCTC 12493 and E. coli is 0.2 mg/ml norfloxacin, 16 μM mellitin was used as C. albicans positive control and 0.2 mg/ml vancomycin as a positive control in ATCC 43300 MRSA strains. The solutions were incubated in 96-well plates used for measuring MICs followed for 18 h. The MBC values were assessed based on observations of the colony cultured on Muller-Hinton agar (MHA). The antimicrobial assay was performed in triplicate following the procedure applied in previous studies described ([Huang et al., 2017]).

[3] = test system: MRSA ATCC 43300; format: cell-based, Methicillin-resistant Staphylococcus aureus; details: ATCC 43300, 18 h
Method: as §1

[4] = test system: MRSA NCTC 12493; format: cell-based, Methicillin-resistant Staphylococcus aureus; details: NCTC 12493, 18 h
Method: as §1

[5] = test system: MRSA (ATCC 43300) biofilm formation; assay: Quantitative biofilm formation assay; format: cell-based, Methicillin-resistant Staphylococcus aureus
Method: Based on the previous study of quantitative biofilm formation assay ([Badmasti et al., 2015]; [Liu et al., 2020]), the crystal violet staining method with moderate modifications was applied for analyzing the capability of MRSA (ATCC 43300) forming biofilms when treated with different concentrations of peptides. Specifically, MRSA strain was cultured in MHB medium at 37°C overnight. Then the bacterial culture was subcultured in fresh MHB medium. The quantificational bacterial suspension (5 × 10^5 CFU/ml) was added into a 96-wells plate together with the tested peptides at different concentrations (2 × MBIC, 1 × MBIC, 1/2 × MBIC and 1/4 × MBIC). The MHB medium without bacteria was negative control and MRSA culture solution was the positive control. The cut-off optical density (ODc) was the mean ± deviation value of the absorbance of negative control at 595 nm. The biofilm formation ability of bacteria samples with different concentrations of peptides were divided into four groups: the negative biofilm formation (−) was the OD595nm ≤ ODc, the weak biofilm formation (+) was the ODc < OD595nm ≤ 2 × ODc, the moderate biofilm formation (++) represented the 2 × ODc < OD595nm ≤ 4 × ODc, and the strong biofilm formation (+++) indicated the OD595nm > 4 × ODc.

[6] = test system: MRSA (ATCC 43300) biofilm; assay: Scanning electron microscopy of MRSA biofilms; format: cell-based, Methicillin-resistant Staphylococcus aureus; details: 1 × MBEC, 24 h
Method: Silicon wafers were cut into small squares (5 mm × 5 mm) and placed at the bottom of a 24-well plate. Each well was then filled with 1 ml of sub-cultured MRSA (ATCC 43300) in MHB at a concentration of 5 × 10^5 CFU/ml and incubated at 37°C in a humid shaking incubator for 48 h to enable the formation of visible biofilms on the silicon wafers. Peptides at concentrations of 1 × MBEC and 4 × MBEC were incubated with PBS-washed MRSA biofilm for 24 h. After the incubation, the silicon wafer in each well was first washed in PBS and then fixed in 2.5% glutaraldehyde at 4°C for 4 h. The fixed biofilm was dehydrated using gradient ethanol solution (30, 50, 70, 80, 90, 95, and 100%) at 10-min intervals. The air-dried biofilm samples were coated with gold film using a LEICA-EM-ACE600 sputter coater instrument (Leica, Germany) and transferred to the field emission scanning electron microscopy (FESEM) system (ZEISS-SUPRA55, Germany) operating at 5 kV to observe the morphology of the peptide-treated biofilm.

[7] = in vitro; format: cell-based; details: human
Method: Human keratinocyte cell line HaCaT (No.1101HUM-PUMC000373) was obtained from the National Infrastructure of Cell Line Resource (Beijing, China) and cultured in high-glucose Dulbecco’s modified Eagle medium (DMEM), containing 10% fetal bovine serum (FBS) and 1% penicillin and streptomycin (Thermo Fisher Scientific Co., Waltham, MA, United States). The grown cells were digested and quantificationally harvested in a 96-wells plate of cell density of 5 × 10^4×cells/ml. After 24 h incubation, the original medium in wells was replaced with fresh medium containing peptides with 2-fold serial dilution, the final concentrations of peptides ranging from […] to 1 μM. When the cells were treated with peptides for 24 h, the cell medium was changed into 100 μl of 10% CCK-8 solution and incubated for 4 h. The absorbance at 450 nm reflected the cell viability in each well. The growth control was cell culture without peptides and blank control was fresh DMEM without cells.

[8] = test system: MRSA NCTC 12493 biofilm; format: cell-based, Methicillin-resistant Staphylococcus aureus; details: NCTC 12493, 48 h
Method: (§2) We evaluated the antibiofilm activity of the three AMPs by applying a crystal violet staining assay following previous research with minor modifications ([Chen et al., 2018]), to determine the minimal biofilm inhibitory concentrations (MBICs) and the minimal biofilm eradication concentrations (MBECs). The tested MRSA bacterial strains (NCTC 12493 and ATCC 43300) were incubated and diluted with MHB to achieve a bacterial concentration of 5 × 10^5 CFU/ml. The peptides were undergone a 2-fold dilution and were incubated with diluted MRSA to determine MBIC values. For the MBEC assay, the diluted bacterial culture was incubated for 48 h to obtain a fully grown biofilm, which was treated with various concentrations of peptides dissolved in MHB and incubated for 24 h at 37°C. The positive control in MBIC and MBEC determination is 0.2 mg/ml vancomycin for MRSA ATCC 43300 strain and the aliquote of norfloxacin for MRSA NCTC 12493.

[9] = test system: MRSA ATCC 43300 biofilm; format: cell-based, Methicillin-resistant Staphylococcus aureus; details: ATCC 43300, 48 h
Method: as §2

[10] = test system: MRSA ATCC 43300; format: cell-based, Methicillin-resistant Staphylococcus aureus; details: not told
Method: The bactericidal activity of cationic peptides resulted from membrane disruption. DNA or RNA that leaked out of the cell was stained with SYTOX™ Green Nucleic Acid Stain (Invitrogen Life Technologies, Carlsbad, CA, United States). The MRSA ATCC 43300 bacterial strain was used to evaluate the membrane disruptive potency of the three peptides. The assay was performed according to the procedure described previously with some modifications ([Chen et al., 2018]). Peptides at different concentrations (4 × MIC, 2 × MIC and 1 × MIC) were incubated with the re-suspended bacterial solution at a concentration of 5 × 10^6 CFU/well in the 96-well black plate for 3 h without light. The positive control is 70% isopropanol. SYTOX green dye (the final concentration of 1%) was then added to each well, and the permeabilizing potency was measured as fluorescent intensity using a SpeactraMax i3x plate reader (Molecular Devices, CA, United States). All experiments were done in five replicates for statistical significance.

[11] = Circular-dichroism spectroscopy, helix content (BESTSEL); format: physicochemical; details: CD
Method: The physiochemical structural analysis entailed website prediction and circular-dichroism (CD) spectroscopy as described previously ([Liu et al., 2017]; [Sang et al., 2018]; [Zhou et al., 2019]). Briefly, temporin-FL and two analogues were dissolved in 10 mM NH4Ac or 10 mM NH4Ac with 50% 2,2,2-trifluoroethanol (TFE) to determine their conformation in different solutions. The 10 mM NH4Ac solution provides a pH stable buffering environment to stabilize peptides and also to prevent system noise and not interfere with CD signals. The results of the CD spectroscopy were inputted into the BESTSEL CD spectrum online analysis tool (http://bestsel.elte.hu/index.php). HeliQuest (https://heliquest.ipmc.cnrs.fr/), and I-Tasser (http://zhanglab.ccmb.med.umich.edu/I-TASSER) were respectively used to determine the helical wheels plots and to predict the 3D secondary structure.

[12] = test system: C. albicans (NCYC 1467); format: cell-based; details: NCYC 1467, 18 h
Method: as §1

[13] = test system: E. coli (NCTC 10418); format: cell-based; details: for Antimicrobial activity MBC / Antimicrobial activity MIC: NCTC 10418, 18 h
Method: as §1

[14] = test system: tested Gram-positive bacterial strains and fungi; format: cell-based; details: 18 h
Method: as §1

Substance: H-FIPLVSGLFSKLL-NH2 [Temporin-FL, FIPLVSGLFSKLL-NH2]
- Hemolysis effect HC50 [1]: 157.4 µM
- Antimicrobial activity MBC [2]: 16 µM
- Antimicrobial activity MIC [2]: 16 µM
- Antimicrobial activity MBC [3]: 32 µM
- Antimicrobial activity MIC [3]: 32 µM
- Antimicrobial activity MBC [4]: 64 µM
- Antimicrobial activity MIC [4]: 32 µM
- Biofilm formation ([5]; MRSA ATCC 43300, peptide at 1/2× MBIC): ++ (the moderate biofilm formation (++) represented the 2 × ODc < OD595nm ≤ 4 × ODc)
- Biofilm formation ([5]; MRSA ATCC 43300, peptide at 1/4× MBIC): ++ (the moderate biofilm formation (++) represented the 2 × ODc < OD595nm ≤ 4 × ODc)
- Biofilm disruption observed by SEM [6]: moderate bacterial colonies reduction
- IC50 at 24 h [7]: 83.4 µM
- Antibiofilm activity MBEC [8]: 64 µM
- Antibiofilm activity MBIC [8]: 32 µM
- Antibiofilm activity MBEC [9]: 64 µM
- Antibiofilm activity MBIC [9]: 32 µM
- Membrane permeability ranking among the three peptides [10]: moderate permeabilizing activity
- Membrane permeabilization, SYTOX Green fluorescent intensity [10]: relatively weak
- Helix in NH4Ac ([11]; 10 mM NH4Ac): 16.7%
- Helix in 50%TFE/NH4Ac ([11]; 10 mM NH4Ac with 50% TFE): 92.3%
- Antimicrobial activity MBC [12]: 64 µM
- Antimicrobial activity MIC [12]: 32 µM
- Activity against Gram-negative bacteria E. coli (in words) ([13]; E. coli): inactive
- Antimicrobial activity MBC [13]: 128 µM
- Antimicrobial activity MIC [13]: 128 µM
- MICs against tested Gram-positive bacterial strains and fungi [14]: 16 to 32 µM

Substance: FIPVSGLFKLL-NH2 [Temporin-FLb, FIPVSGLFKLL-NH2]
- Hemolysis effect HC50 [1]: 356.0 µM
- Antimicrobial activity MBC [2]: 16 µM
- Antimicrobial activity MIC [2]: 8 µM
- Antimicrobial activity MBC [3]: 128 µM
- Antimicrobial activity MIC [3]: 64 µM
- Antimicrobial activity MBC [4]: 32 µM
- Antimicrobial activity MIC [4]: 16 µM
- IC50 at 24 h [7]: 375 µM
- Antibiofilm activity MBEC [8]: 128 µM
- Antibiofilm activity MBIC [8]: 64 µM
- Antibiofilm activity MBEC [9]: 128 µM
- Antibiofilm activity MBIC [9]: 64 µM
- Membrane permeability ranking among the three peptides [10]: lowest
- Membrane permeabilization, SYTOX Green fluorescent intensity [10]: relatively weak
- Antimicrobial activity MBC [12]: 128 µM
- Antimicrobial activity MIC [12]: 32 µM
- Antimicrobial activity MBC [13]: 128 µM
- Antimicrobial activity MIC [13]: 128 µM

Substance: FIPLVSGLFKLL-NH2 [Temporin-FLa, FIPLVSGLFKLL-NH2]
- Hemolysis effect HC50 [1]: 74.02 µM
- Antimicrobial activity MBC [2]: 8 µM
- Antimicrobial activity MIC [2]: 4 µM
- Antimicrobial activity MBC [3]: 8 µM
- Antimicrobial activity MIC [3]: 4 µM
- Antimicrobial activity MBC [4]: 16 µM
- Antimicrobial activity MIC [4]: 4 µM
- IC50 at 24 h [7]: 46.6 µM
- Antibiofilm activity MBEC [8]: 32 µM
- Antibiofilm activity MBIC [8]: 8 µM
- Antibiofilm activity MBEC [9]: 8 µM
- Antibiofilm activity MBIC [9]: 4 µM
- Membrane permeability ranking among the three peptides [10]: greatest permeability
- Membrane permeabilization, SYTOX Green fluorescent intensity [10]: highest fluorescent intensity
- Antimicrobial activity MBC [12]: 32 µM
- Antimicrobial activity MIC [12]: 8 µM
- Antimicrobial activity MBC [13]: 128 µM
- Antimicrobial activity MIC [13]: 128 µM

Reference: PMC8560897, “Bioevaluation and Targeted Modification of Temporin-FL From the Skin Secretion of Dark-Spotted Frog (Pelophylax nigromaculatus)” (Frontiers in Molecular Biosciences, 2021)
